From patent publication US5656603A (Loyola University of Chicago, priority 1995, dated 1997) come the findings set out here.

In one experiment the target is T1, endopeptidase 24.15 (Rattus norvegicus, UniProt P24155).
T1 construct: endopeptidase 24.15 (EC 3.4.24.15) (rat brain synaptosomes); from tissue; host or cells: rat brain synaptosomes
Kind of experiment: Specificity of apstatin: endopeptidase 24.15. In kind it is biochemical. As to conditions: rat brain synaptosomes; Bk(2-9), pH 6.8, HPLC-1. How it is done:
Specificity of Apstatin--Apstatin was assayed for its ability to inhibit several other peptidases. […] Unless otherwise indicated, the source of each enzyme activity was a detergent extract of bovine lung prepared as described in (12-13). Activities were determined by a modification of the fluorescent assay described above (indicated by "FLUO") or by HPLC separation and quantitation of reaction products using the method described in (12) (method "HPLC-1") or the method described below (method "HPLC-2"). […]

The test system of experiment [1] is [3H]-bradykinin degradation in the isolated perfused rat lung. Kind of experiment: [3H]-bradykinin degradation in the isolated perfused rat lung (HPLC of perfusate). The method, then: Using the procedure described herein, under Experimental Procedures it was determined that aminopeptidase P contributed to Bk degradation in the mammalian lung. In that procedure, [^3 H]-Bk (labelled in Pro^2 and Pro^3) was perfused through the isolated lung in the presence or absence of various peptidase inhibitors. The perfusate was then analyzed for radiolabelled products by HPLC. […] Most of the radioactivity (an average of 79%) was in the form of [^3 H]-Pro-Pro [Bk(2-3)] with the remainder being [^3 H]-Bk(1-5). It was hypothesized that pulmonary vascular aminopeptidase P was cleaving the Arg'-Pro^2 bond followed by rapid removal of Pro-Pro by dipeptidylpeptidase IV (DPP IV) (12). Simultaneously, angiotensin converting enzyme (ACE) was sequentially removing Phe-Arg and Ser-Pro from the C-terminus (13). […] However, most of the radioactivity remained in the Pro-Pro peak indicating substantial cleavage of Bk at the N-terminal end.
Perfusion of the Isolated Rat Lung--Male Sprague Dawley rats, weighing 300-500 grams, were anesthetized with sodium pentobarbital (50-75 mg/kg) given by intraperitoneal injection. The trachea was cannulated and the lungs ventilated with air at 70 cycles per minute (Harvard Small Animal Ventilator) at a pressure of 70 mm H2 O. The heart and lungs were exposed via midsternal incision and 1000 units of heparin were administered intracardially. Polyethylene cannulae were secured into the pulmonary artery and the left ventricle. A modified Krebs buffer (118.5 mM NaCl, 4.7 mM KCl, 1.1 mM KH2 PO4, 1.1 mM MgSO4, 2.5 mM CaCl2, 19.6 mM NaHCO3, 5.6 mM dextrose), which was kept in a 50° C. water bath and aerated with 95% O2 -5% CO2 to pH 7.35, was perfused into the pulmonary artery at 35° C. and 2.6 ml/min (LKB Microperplex peristaltic pump). The buffer was circulated through the isolated lung in situ until the effluent was free of blood. The surgical field was maintained at 37° .C with a heat lamp throughout the procedure. Experiments were conducted by introducing [^3 H]-Bk in the presence or absence of test peptidase inhibitors into the pulmonary circulation via the pulmonary artery and then collecting perfusion effluent from the left ventricular cannula. […] The lung was then perfused with 1 μCi [^3 H]-Bk in 1 ml of the inhibitor solution (giving 16 nM Bk) followed by inhibitor solution alone. Effluent was collected in tubes (0.5 min/fraction) containing 150 μl of 2% TFA. For each lung preparation, 5-6 samples were perfused over a period of about one hour. Control perfusions of [^3 H]-Bk alone were always carried out before perfusions of samples containing ramiprilat because of the slow reversibility of inhibition of ACE by this compound. […] The effects of the latter two inhibitors were reversible.
Separation and Identification of Bradykinin Metabolites--The fractions which were collected from each perfusion sample run were counted for radioactivity, and the fraction having the highest radioactive counts was prepared for HPLC by filtration through a Centricon-10 microconcentrator (Amicon). An aliquot of the filtrate containing 25000 dpm (approx. 25 μl) was spiked with a cocktail of unlabelled Bk fragments (3 μl) and then subjected to HPLC using a Waters Radial Compression Separation System with a 5μ NOVA PAK C18 Radial Pak Cartridge. The column was developed at a flow rate of 1 ml/min with a 60 min linear gradient from 100% Solvent A (0.1% TFA in water) to 75% Solvent A: 25% Solvent B (0.08% TFA in acetonitrile) using a Spectra Physics 8700XR Solvent Delivery System. The column effluent was simultaneously monitored for absorbance at 206 nm (LKB Uvicord S) and for radioactivity (Radiomatic Flo-One HS Radioactive Flow Detector using Ultima-Flo M scintillation fluid from Packard, Meriden, Conn.). […] Radioactive peaks were identified by comparison of the retention times to those of the unlabelled standards. […]

Molecules are shown by their SMILES. Where “and” joins values, the source holds several entries; their conditions need not be identical. Identical values can stand only once.

T1 sequence (P24155 whole entry): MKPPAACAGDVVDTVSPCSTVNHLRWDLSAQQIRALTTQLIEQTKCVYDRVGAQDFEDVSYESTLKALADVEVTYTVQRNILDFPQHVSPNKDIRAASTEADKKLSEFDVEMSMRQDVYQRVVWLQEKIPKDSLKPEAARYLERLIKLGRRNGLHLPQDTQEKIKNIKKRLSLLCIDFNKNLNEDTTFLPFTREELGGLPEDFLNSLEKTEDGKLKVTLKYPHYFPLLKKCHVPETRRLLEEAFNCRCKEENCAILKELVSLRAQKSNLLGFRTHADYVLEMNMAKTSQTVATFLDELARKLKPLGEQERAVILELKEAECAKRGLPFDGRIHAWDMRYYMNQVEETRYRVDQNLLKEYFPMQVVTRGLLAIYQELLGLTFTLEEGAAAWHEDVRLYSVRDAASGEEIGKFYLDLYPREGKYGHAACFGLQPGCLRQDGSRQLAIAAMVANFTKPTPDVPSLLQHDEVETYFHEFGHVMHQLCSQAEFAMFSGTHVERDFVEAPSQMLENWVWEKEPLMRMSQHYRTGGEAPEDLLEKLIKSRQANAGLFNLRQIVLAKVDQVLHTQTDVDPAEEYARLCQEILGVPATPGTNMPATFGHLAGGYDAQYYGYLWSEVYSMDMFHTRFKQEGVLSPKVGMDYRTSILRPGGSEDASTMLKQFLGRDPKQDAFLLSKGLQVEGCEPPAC

On endopeptidase 24.15, `C[C@H](NC(=O)[C@@H]1CCCN1C(=O)[C@@H]1CCCN1C(=O)[C@@H](O)[C@H](N)Cc1ccccc1)C(N)=O` [apstatin, N-[(2S, 3R)-3-amino-2-hydroxy-4-phenylbutanoyl]-L-prolyl-L-prolyl-Lalaninamide] had an IC50 of more than 800 µM. For the same molecule, the “percentage of radioactivity eluting from the lung as intact [3H]-Bk” value was 92±4% and 92% in experiment [1] (apstatin 40 μM together with ramiprilat (0.5 μM), mean ± SEM, three rats); 1-3% in experiment [1] (apstatin alone (data not shown), difficult to quantitate accurately).

By IC50 is commonly meant the concentration needed to halve the response being measured. A high value points to weaker potency.
